Laboratory results as given in EP0183174A2, “Substituted phenoxy urea, processes for its preparation and herbicide containing it as active ingredient” (KUMIAI CHEMICAL INDUSTRY CO., LTD., priority 1984, dated 1986).

Assays:
Design in all cases: key: 5: Withered; 4.5: Herbicidal effect (or phytotoxicity) in a range of 90 to 99%; 4: Herbicidal effect (or phytotoxicity) in a range of 80 to 89%; 3.5: Herbicidal effect (or phytotoxicity) in a range of 70 to 79%; 3: Herbicidal effect (or phytotoxicity) in a range of 60 to 69%; 2.5: Herbicidal effect (or phytotoxicity) in a range of 50 to 59%; 2: Herbicidal effect (or phytotoxicity) in a range of 40 to 49%; 1.5: Herbicidal effect (or phytotoxicity) in a range of 30 to 39%; 1: Herbicidal effect (or phytotoxicity) in a range of 20 to 29%; 0.5: Herbicidal effect (or phytotoxicity) in a range of 1 to 19%; 0: No herbicidal effect (or no phytotoxicity)
[1] = test system: barnyardgrass (Echinochloa crus-galli L.); assay: Test Example 1: herbicidal test by water treatment in a paddy field; format: in vivo; settings: evaluated thirty days after application
Protocol: Into each porcelain pot having a diameter of 10 cm, paddy soil was filled and puddled, and seeds of barnyardgrass (Echinochloa crus-galli L.), smallflower flatsedge, monochoria and Japanese bulrush were sown, and water was filled in a-depth of 3 cm. One day later, a predetermined amount of the wettable powder prepared in Formulation Example 3 and diluted with water was dropwise applied to the surface of the water (dose of the active ingredient: 4 kg/hectare). Thereafter, they were grown in a green house. Thirty days after the application, the herbicidal effects were evaluated in accordance with the standards as identified in Table 5.

crabgrass [2] = assay: Test Example 3: herbicidal test by upland soil treatment; format: in vivo, Digitaria sanquinalis L.; settings: evaluated twenty days after application
Description: (§1) Into each plastic pot of 600 cm^2, upland soil was filled, then seeds of barnyardgrass, crabgrass, green foxtail, redroot pigweed, rice flatsedge, rice, wheat, maize, soybean, cotton and sugar beet were sown, and they were covered with soil. A predetermined amount of the wettable powder prepared from the test compound in accordance with Formulation Example 3 and diluted with water, was uniformly applied to the surface of the soil at an application rate of 1000 liter/hectare by means of a small size spray. They were grown in a greenhouse, and twenty days after the application, the herbicidal effects and phytotoxicity were evaluated in accordance with the standards as identified in Table 5.

redroot pigweed = assay: as above; format: in vivo, Amaranthus retroflexus L.; settings: evaluated twenty days after application
Description: as §1

crabgrass [3] = assay: Test Example 4: herbicidal test by upland foliage treatment; format: in vivo, Digitaria sanquinalis L.
Protocol: (§2) Into each plastic pot of 120 cm^2, upland soil was filled, then seeds of barnyardgrass, crabgrass, redroot pigweed and rice flatsedge were sown, and they were grown in a greenhouse until barnyardgrass. reached 3-leaf stage. Each wettable powder prepared from the test compound in accordance with Formulation Example 3 was diluted with water to give the amount of the active ingredient corresponding to 4 kg/hectare, and the diluted solution was uniformly sprayed at an application rate of 1000 liter/hectare from the top of plants by means of a small size spray, when barnyardgrass was in the 3-leaf stage. They were grown in a greenhouse, and twenty days after the application, the herbicidal effects were evaluated in accordance with the standards as identified in Table 5.

rice flatsedge = assay: as above; format: in vivo, Cy^perus iria L.
Protocol: as §2

[4] = active ingredient 4 kg/hectare, foliage spray 1000 liter/hectare at 3-leaf stage of barnyardgrass, twenty days after application
[5] = water treatment in paddy field pot, dose of active ingredient 4 kg/hectare
[6] = upland foliage treatment, 4 kg/hectare active ingredient, sprayed at 1000 liter/hectare at barnyardgrass 3-leaf stage, evaluated twenty days after application

## CN(C)C(=O)NOc1cc(Cl)ccc1Cl [Compound No. 1, 3-(2,5-Dichlorophenoxy)-1,1-dimethyl urea]
[1]; dose of the active ingredient 4 kg/hectare, wettable powder applied to water surface one day after sowing
  Herbicidal effects Barnyard grass: 5
Crabgrass [2]; Dose 1 kg/HA
  Herbicidal effects Crab-grass: 5
Crabgrass [2]; Dose 4 kg/HA
  Herbicidal effects Crab-grass: 5
Redroot pigweed; Dose 1 kg/HA
  Herbicidal effects Redroot pigweed: 5
Redroot pigweed; Dose 4 kg/HA
  Herbicidal effects Redroot pigweed: 5
Crabgrass [3]; [4]
  Herbicidal effects Crabgrass: 4 (Herbicidal effect (or phytotoxicity) in a range of 80 to 89%)
Rice flatsedge; [4]
  Herbicidal effects Rice flatsedge: 5

## CC(C)N(C)C(=O)NOc1cc(Cl)cc(Cl)c1 [Compound No. 186, 3-(3,5-Dichlorophenoxy)-1-isopropyl-1-methyl urea trichloroacetate]
[1]; [5]
  Herbicidal effects Barnyard grass: 5
Crabgrass [2]; Dose 1 kg/HA
  Herbicidal effects Crab-grass: 5
Crabgrass [2]; Dose 4 kg/HA
  Herbicidal effects Crab-grass: 5
Redroot pigweed; Dose 1 kg/HA
  Herbicidal effects Redroot pigweed: 5
Redroot pigweed; Dose 4 kg/HA
  Herbicidal effects Redroot pigweed: 5
Crabgrass [3]; [4]
  Herbicidal effects Crabgrass: 5
Rice flatsedge; [4]
  Herbicidal effects Rice flatsedge: 4 (Herbicidal effect (or phytotoxicity) in a range of 80 to 89%)

## CON(C)C(=O)NOc1cc(Cl)ccc1Cl [Compound No. 242, 3-(2,5-Dichlorophenoxy)-1-methoxy-1-methyl urea]
[1]; [5]
  Herbicidal effects Barnyard grass: 5
Crabgrass [2]; Dose 1 kg/HA
  Herbicidal effects Crab-grass: 5
Crabgrass [2]; Dose 4 kg/HA
  Herbicidal effects Crab-grass: 5
Redroot pigweed; Dose 1 kg/HA
  Herbicidal effects Redroot pigweed: 5
Redroot pigweed; Dose 4 kg/HA
  Herbicidal effects Redroot pigweed: 5
Crabgrass [3]; [6]
  Herbicidal effects Crabgrass: 5
Rice flatsedge; [6]
  Herbicidal effects Rice flatsedge: 5

## COCCNC(=O)NOc1cc(Cl)ccc1Cl [Compound No. 243]
[1]; [5]
  Herbicidal effects Barnyard grass: 5
Crabgrass [2]; Dose 1 kg/HA
  Herbicidal effects Crab-grass: 5
Crabgrass [2]; Dose 4 kg/HA
  Herbicidal effects Crab-grass: 5
Redroot pigweed; Dose 1 kg/HA
  Herbicidal effects Redroot pigweed: 5
Redroot pigweed; Dose 4 kg/HA
  Herbicidal effects Redroot pigweed: 5
Crabgrass [3]; [6]
  Herbicidal effects Crabgrass: 4 (Herbicidal effect (or phytotoxicity) in a range of 80 to 89%)
Rice flatsedge; [6]
  Herbicidal effects Rice flatsedge: 5
